The target in one assay is Rhesus PDE2A3 (Macaca mulatta, UniProt B3VTJ2). The experiment in a line: PDE2 fluorescence polarization (IMAP FP) inhibition assay, rhesus enzyme. The assay is classed as biochemical, rhesus macaque. As to conditions: Rhesus PDE2, Lab B; read-out: Rhesus PDE2 Ki (nM) - Lab B. Put shortly:
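IMAP FP (mP from parallel and perpendicular fluorescence against substrate-only control) was read ≥1 h after adding binding reagent. The preceding 60 min room-temperature reaction contained FAM-cAMP (50 nM) and cGMP (1 uM) in pH 7.2 Tris buffer with MgCl2 and DTT. Enzyme was supernatant of sonicated AD293 cells expressing rhesus PDE2A3; compounds were 3-fold titrated, DMSO 1% final.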
Rhesus PDE2A3, sequence (B3VTJ2 1-941): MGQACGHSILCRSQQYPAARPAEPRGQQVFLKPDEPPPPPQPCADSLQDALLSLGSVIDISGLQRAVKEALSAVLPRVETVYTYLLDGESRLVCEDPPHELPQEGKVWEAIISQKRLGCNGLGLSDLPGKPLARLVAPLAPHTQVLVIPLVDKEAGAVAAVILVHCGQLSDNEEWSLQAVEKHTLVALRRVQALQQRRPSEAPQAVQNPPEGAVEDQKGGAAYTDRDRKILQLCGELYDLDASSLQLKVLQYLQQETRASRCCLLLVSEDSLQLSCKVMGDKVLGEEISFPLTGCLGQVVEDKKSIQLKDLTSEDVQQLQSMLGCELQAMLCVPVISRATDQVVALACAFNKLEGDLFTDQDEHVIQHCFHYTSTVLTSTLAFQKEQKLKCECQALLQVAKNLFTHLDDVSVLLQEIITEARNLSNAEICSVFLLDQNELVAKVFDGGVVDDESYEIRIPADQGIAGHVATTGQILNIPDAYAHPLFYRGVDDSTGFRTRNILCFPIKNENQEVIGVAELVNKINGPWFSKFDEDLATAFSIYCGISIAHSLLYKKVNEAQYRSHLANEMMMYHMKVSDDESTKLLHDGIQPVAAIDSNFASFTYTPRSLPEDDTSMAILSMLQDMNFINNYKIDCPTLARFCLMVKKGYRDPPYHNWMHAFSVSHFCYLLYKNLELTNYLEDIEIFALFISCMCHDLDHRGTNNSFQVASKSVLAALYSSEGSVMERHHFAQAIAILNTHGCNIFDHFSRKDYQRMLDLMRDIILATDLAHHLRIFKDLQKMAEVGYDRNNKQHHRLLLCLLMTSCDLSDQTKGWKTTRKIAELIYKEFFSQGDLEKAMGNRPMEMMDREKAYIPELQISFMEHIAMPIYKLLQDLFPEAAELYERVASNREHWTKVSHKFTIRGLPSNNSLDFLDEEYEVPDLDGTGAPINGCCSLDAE
Turning to `Cc1nc(C(=O)NC(C)(c2ccc(S(F)(F)(F)(F)F)cc2)C(C)C)cc(=O)[nH]1` (racemic) [Example 619, N-{1,2-dimethyl-1-[4-(pentafluoro-λ^6-sulfanyl)phenyl]propyl}-2-methyl-6-oxo-1,6-dihydropyrimidine-4-carboxamide], the Ki (as a rule, a dissociation constant, usually derived from enzyme kinetics or from competition with a known ligand) amounted to 62 nM.

Turning to `COc1ccc(Cc2nc(C(=O)N[C@@H](c3ccc(C(F)(F)F)cc3)C3CC3)cc(=O)[nH]2)cc1` [Example 481, N-{(R)-cyclopropyl[4-(trifluoromethyl)phenyl]methyl}-2-(4-methoxybenzyl)-6-oxo-1,6-dihydropyrimidine-4-carboxamide], the Ki stood at 1.9 nM.

As for `CC1([C@@H](NC(=O)c2cc(=O)[nH]c(C3CC3)n2)c2ccc(OC(F)F)cc2)CC1` [Example 443, 2-cyclopropyl-N-[(1R)-[4-(difluoromethoxy)phenyl](1-methylcyclopropyl)methyl]-6-oxo-1,6-dihydropyrimidine-4-carboxamide], the Ki was found to be 8 nM.

For another assay, the target named is human PDE2A1 (Homo sapiens (Human), UniProt O00408). Nature of the assay: IMAP FP PDE selectivity panel, human PDE2A1. The assay is classed as biochemical. As to conditions: Human PDE2, Lab B; read-out: Human PDE2 Ki (nM) - Lab B. Put shortly: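 IMAP FP format: substrate 50 nM FAM-cAMP plus 1000 nM cGMP, enzyme (insect-cell GST-tagged human PDE2A1) at ~20% conversion, 60 min reaction at room temperature. Apparent inhibition constants calculated from parallel/perpendicular fluorescence with KM 10,000 nM.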
human PDE2A1, sequence (O00408 other isoform, or with tags, fused parts or gaps): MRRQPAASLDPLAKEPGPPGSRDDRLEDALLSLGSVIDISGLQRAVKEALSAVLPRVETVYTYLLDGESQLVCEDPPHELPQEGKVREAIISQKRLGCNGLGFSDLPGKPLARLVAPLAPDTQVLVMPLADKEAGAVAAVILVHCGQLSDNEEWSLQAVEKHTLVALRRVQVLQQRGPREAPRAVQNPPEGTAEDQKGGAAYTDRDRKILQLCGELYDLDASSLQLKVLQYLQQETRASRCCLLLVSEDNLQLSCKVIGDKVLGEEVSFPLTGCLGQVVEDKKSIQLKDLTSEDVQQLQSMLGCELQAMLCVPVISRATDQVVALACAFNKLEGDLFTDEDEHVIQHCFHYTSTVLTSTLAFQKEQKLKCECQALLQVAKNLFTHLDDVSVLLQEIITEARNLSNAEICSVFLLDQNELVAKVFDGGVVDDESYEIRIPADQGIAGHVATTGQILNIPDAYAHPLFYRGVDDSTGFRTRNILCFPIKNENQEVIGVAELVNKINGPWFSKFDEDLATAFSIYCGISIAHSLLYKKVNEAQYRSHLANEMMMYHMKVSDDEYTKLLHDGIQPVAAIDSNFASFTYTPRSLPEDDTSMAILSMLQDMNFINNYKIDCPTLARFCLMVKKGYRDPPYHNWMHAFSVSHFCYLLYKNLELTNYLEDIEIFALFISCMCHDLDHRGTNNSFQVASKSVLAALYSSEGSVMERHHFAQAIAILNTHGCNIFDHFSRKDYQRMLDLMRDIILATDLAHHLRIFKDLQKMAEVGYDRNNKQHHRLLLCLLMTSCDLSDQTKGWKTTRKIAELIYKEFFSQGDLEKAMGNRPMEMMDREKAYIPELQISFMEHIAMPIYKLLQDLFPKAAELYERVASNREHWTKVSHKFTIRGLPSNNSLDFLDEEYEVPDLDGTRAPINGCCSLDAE
`Cc1nc(C(=O)NC(C)(c2ccc(S(F)(F)(F)(F)F)cc2)C(C)C)cc(=O)[nH]1` (racemic) [Example 619, N-{1,2-dimethyl-1-[4-(pentafluoro-λ^6-sulfanyl)phenyl]propyl}-2-methyl-6-oxo-1,6-dihydropyrimidine-4-carboxamide]: the Ki came out at 67 nM.

For `COc1ccc(Cc2nc(C(=O)N[C@@H](c3ccc(C(F)(F)F)cc3)C3CC3)cc(=O)[nH]2)cc1` [Example 481, N-{(R)-cyclopropyl[4-(trifluoromethyl)phenyl]methyl}-2-(4-methoxybenzyl)-6-oxo-1,6-dihydropyrimidine-4-carboxamide], the Ki was 1.9 nM.

As for `CC1([C@@H](NC(=O)c2cc(=O)[nH]c(C3CC3)n2)c2ccc(OC(F)F)cc2)CC1` [Example 443, 2-cyclopropyl-N-[(1R)-[4-(difluoromethoxy)phenyl](1-methylcyclopropyl)methyl]-6-oxo-1,6-dihydropyrimidine-4-carboxamide], the Ki stood at 7 nM.

With `Cc1cnc(-c2nc(C(=O)N[C@H](C)c3ccc(C(F)(F)F)cc3)cc(=O)[nH]2)o1` [Example 676, (R)-2-(5-methyloxazol-2-yl)-6-oxo-N-(1-(4-(trifluoromethyl)phenyl)ethyl)-1,6-dihydropyrimidine-4-carboxamide], the Ki amounted to 478 nM.

As to `CC1([C@@H](NC(=O)c2cc(=O)[nH]c(-c3ncccn3)n2)c2ccc(C(F)(F)F)cc2)CC1` [Example 582, N-{(R)-(1-methylcyclopropyl)[4-(trifluoromethyl)phenyl]methyl}-6-oxo-1,6-dihydro-2,2′-bipyrimidine-4-carboxamide], the Ki stood at 10 nM.

For `Cc1nc(C(=O)N[C@@H](c2ccc(C(F)F)c(F)c2)C2(C)CC2)cc(=O)[nH]1` [Example 647, N-[(R)-[4-(difluoromethyl)-3-fluorophenyl](1-methylcyclopropyl)methyl]-2-methyl-6-oxo-1,6-dihydropyrimidine-4-carboxamide], the Ki came to 52 nM.

Regarding `O=C(NC1(c2ccc(C(F)(F)F)cc2F)CC1)c1cc(=O)[nH]c(-c2ncccn2)n1` [Example 579, N-{1-[2-fluoro-4-(trifluoromethyl)phenyl]cyclopropyl}-6-oxo-1,6-dihydro-2,2′-bipyrimidine-4-carboxamide], the Ki came to 37 nM.

As for `CC(C)[C@@H](NC(=O)c1cc(=O)[nH]c(-c2ccccc2)n1)c1ccc(OC(F)F)cc1` [Example 543, N-{(1R)-1-[4-(difluoromethoxy)phenyl]-2-methylpropyl}-6-oxo-2-phenyl-1,6-dihydropyrimidine-4-carboxamide], the Ki was 5.2 nM.

On to `CC(C)(C)[C@@H](NC(=O)c1cc(=O)[nH]c(-c2ncccn2)n1)c1ccc2c(c1)OC(F)(F)O2` [Example 586, N-[(1R)-1-(2,2-difluoro-1,3-benzodioxol-5-yl)-2,2-dimethylpropyl]-6-oxo-1,6-dihydro-2,2′-bipyrimidine-4-carboxamide], for which the Ki came to 19 nM.

On to `Cc1nc(C(=O)N[C@@H](c2ccc(C(F)F)cc2F)C(C)(C)C)cc(=O)[nH]1` [Example 661, N-{(1R)-1-[4-(difluoromethyl)-2-fluorophenyl]-2,2-dimethylpropyl}-2-methyl-6-oxo-1,6-dihydropyrimidine-4-carboxamide], for which the Ki is 6.6 nM.

On to `O=C(NC1(c2ccc(CC(F)(F)F)cc2)CC1)c1cc(=O)[nH]c(-c2ncccn2)n1` [Example 578, 6-oxo-N-{1-[4-(2,2,2-trifluoroethyl)phenyl]cyclopropyl}-1,6-dihydro-2,2′-bipyrimidine-4-carboxamide], for which the Ki came to 104 nM.

`Cc1nc(C(=O)N[C@@](C)(CO)c2ccc(C(F)(F)F)cc2)cc(=O)[nH]1` [Example 635, N-{(1R)-2-hydroxy-1-methyl-1-[4-(trifluoromethyl)phenyl)ethyl}-2-methyl-6-oxo-1,6-dihydropyrimidine-4-carboxamide]: the Ki is 59 nM.

`Cc1nc(C(=O)NC2(c3ccc(C(F)(F)F)cc3Cl)CC2)cc(=O)[nH]1` [Example 637, N-{1-[2-chloro-4-(trifluoromethyl)phenyl]cyclopropyl}-2-methyl-6-oxo-1,6-dihydropyrimidine-4-carboxamide]: the Ki came to 16 nM.

With `Cc1nc(C(=O)NC2(c3ccc(CC(F)(F)F)cc3)CC2)cc(=O)[nH]1` [Example 627, 2-methyl-6-oxo-N-{1-[4-(2,2,2-trifluoroethyl)phenyl]cyclopropyl}-1,6-dihydropyrimidine-4-carboxamide], the Ki worked out at 46 nM.

Take `Cc1nc(C(=O)N[C@](C)(CO)c2ccc(C(F)(F)F)cc2Cl)cc(=O)[nH]1` [Example 640, N-{(1S)-1-[2-chloro-4-(trifluoromethyl)phenyl]-2-hydroxy-1-methylethyl}-2-methyl-6-oxo-1,6-dihydropyrimidine-4-carboxamide]: the Ki is 4.4 nM.

As for `Cc1nc(C(=O)N[C@@H](c2ccc(OC(F)F)c(F)c2)C(C)C)cc(=O)[nH]1` [Example 624, N-{(1R)-1-[4-(difluoromethoxy)-3-fluorophenyl]-2-methylpropyl}-2-methyl-6-oxo-1,6-dihydropyrimidine-4-carboxamide], the Ki worked out at 17 nM.

Regarding `CC(C)(C)[C@@H](NC(=O)c1cc(=O)[nH]c(-c2ncccn2)n1)c1ccc(C(F)(F)F)cc1F` [Example 565, N-{(1R)-1-[2-fluoro-4-(trifluoromethyl)phenyl]-2,2-dimethylpropyl}-6-oxo-1,6-dihydro-2,2′-bipyrimidine-4-carboxamide], the Ki worked out at 7 nM.

`Cc1nc(C(=O)N[C@@H](c2ccc(OC(F)F)c(F)c2)C2CC2)cc(=O)[nH]1` [Example 629, N-{(R)-cyclopropyl[4-(difluoromethoxy)-3-fluorophenyl]methyl]-2-methyl-6-oxo-1,6-dihydropyrimidine-4-carboxamide]: the Ki turned out to be 53 nM.

For `Cc1nc(C(=O)N[C@H](C)c2ccc(C(F)F)cc2)cc(=O)[nH]1` [Example 656, N-{(1R)-1-[4-(difluoromethyl)phenyl]ethyl}-2-methyl-6-oxo-1,6-dihydropyrimidine-4-carboxamide], the Ki worked out at 111 nM.

For the compound `CC(C)(C)[C@@H](NC(=O)c1cc(=O)[nH]c(-c2ncccn2)n1)c1ccc(OC(F)(F)F)c(F)c1` [Example 554, N-{(1R)-1-[3-fluoro-4-(trifluoromethoxy)phenyl]-2,2-dimethylpropyl}-6-oxo-1,6-dihydro-2,2′-bipyrimidine-4-carboxamide], the Ki was 8.2 nM.

Take `CC1([C@@H](NC(=O)c2cc(=O)[nH]c(-c3ncccn3)n2)c2ccc(C(F)(F)F)c(F)c2)CC1` [Example 583, N-[(R)-[3-fluoro-4-(trifluoromethyl)phenyl](1-methylcyclopropyl)methyl]-6-oxo-1,6-dihydro-2,2′-bipyrimidine-4-carboxamide]: the Ki amounted to 8 nM.

Take `CC1(c2ccc(C(NC(=O)c3cc(=O)[nH]c(-c4ccccc4)n3)C(C)(C)C)cc2F)CC1` (single isomer, unassigned) [Example 715, (R)- or (S)-N-(1-(3-fluoro-4-(1-methylcyclopropyl)phenyl)-2,2-dimethylpropyl)-6-oxo-2-phenyl-1,6-dihydropyrimidine-4-carboxamide]: the Ki was found to be 3.8 nM.

The record behind these values is patent US9815796B2 (Merck Sharp & Dohme Corp., priority 2013, dated 2017).
